Results as given in US20110233526A1, “PERYLENE DIIMIDE DERIVATIVE AND ORGANIC SEMICONDUCTOR ELEMENT USING THE SAME MATERIAL” (priority 2010, published 2011).

Tests used:
[1] = Electron mobility of TC-PDA-F in an OTFT versus time of exposure to air (air-stability, FIG. 3); type: physicochemical; details: OTFT thin film
Excerpt: Refer to FIG. 1 and FIG. 2 for diagrams respectively schematically showing a BG-TC (Bottom Gate-Top Contact) OTFT and a BG-BC (Bottom Gate-Bottom Contact) OTFT. The BG-TC OTFT 10 has a substrate 11, a gate 12 formed on the substrate 11, a dielectric layer 13 formed on the gate 12, a source 14 and a drain 15 formed over the dielectric layer 13, and an organic semiconductor layer 16 for conducting the source 14 and the drain 15. The BG-BC OTFT 20 has a substrate 21, a gate 22 formed on the substrate 21, a dielectric layer 23 formed on the gate 22, a source 24 and a drain 25 formed on the dielectric layer 23, and an organic semiconductor layer 26 for conducting the source 24 and the drain 25. In one embodiment, the organic semiconductor layers 16 and 26 are fabricated with a soluble process in the atmospheric environment. In one embodiment, the dielectric layers 13 and 23 respectively formed on the substrates 11 and 21 also are fabricated with a soluble process. For example, a liquid-phase deposited silicon dioxide (LPD-SiO2) is formed on a silicon substrate 11 or 21 to function as the dielectric layer 13 or 23, whereby the electron mobility thereof can reach 0.26 cm^2V^−1s^−1. Refer to FIG. 3 for a diagram showing the relationship of the electron mobility of TC-PDA-F and the time of exposure to air.

[2] = Solubility in organic solution; type: physicochemical; details: organic solution (such as toluene)

Q: Which electron mobility ([1]; after exposure to air for two months (FIG. 3)) does the source give for `O=C1c2cc(Cl)c3c4c(Cl)cc5c6c(cc(Cl)c(c7c(Cl)cc(c2c37)C(=O)N1Cc1cc(F)cc(C(F)(F)F)c1)c64)C(=O)N(Cc1cc(F)cc(C(F)(F)F)c1)C5=O` [TC-PDA-F] here?
A: 1.6×10^−5 cm^2V^−1s^−1

Q: And the electron mobility ([1]; before exposure to air (FIG. 3))?
A: 5.34×10^−5 cm^2V^−1s^−1

Q: And the “solubility in organic solution” value [2]?
A: can be dissolved
